The source of these data is patent US20230167073A1 (Teijin Pharma Limited, priority 2020, published 2023).

In this assay the target is T1, Human TRPC6 (Homo sapiens, UniProt Q9Y210).
T1 construct: expressed in transfected cells
T1 sequence (Q9Y210 1-931): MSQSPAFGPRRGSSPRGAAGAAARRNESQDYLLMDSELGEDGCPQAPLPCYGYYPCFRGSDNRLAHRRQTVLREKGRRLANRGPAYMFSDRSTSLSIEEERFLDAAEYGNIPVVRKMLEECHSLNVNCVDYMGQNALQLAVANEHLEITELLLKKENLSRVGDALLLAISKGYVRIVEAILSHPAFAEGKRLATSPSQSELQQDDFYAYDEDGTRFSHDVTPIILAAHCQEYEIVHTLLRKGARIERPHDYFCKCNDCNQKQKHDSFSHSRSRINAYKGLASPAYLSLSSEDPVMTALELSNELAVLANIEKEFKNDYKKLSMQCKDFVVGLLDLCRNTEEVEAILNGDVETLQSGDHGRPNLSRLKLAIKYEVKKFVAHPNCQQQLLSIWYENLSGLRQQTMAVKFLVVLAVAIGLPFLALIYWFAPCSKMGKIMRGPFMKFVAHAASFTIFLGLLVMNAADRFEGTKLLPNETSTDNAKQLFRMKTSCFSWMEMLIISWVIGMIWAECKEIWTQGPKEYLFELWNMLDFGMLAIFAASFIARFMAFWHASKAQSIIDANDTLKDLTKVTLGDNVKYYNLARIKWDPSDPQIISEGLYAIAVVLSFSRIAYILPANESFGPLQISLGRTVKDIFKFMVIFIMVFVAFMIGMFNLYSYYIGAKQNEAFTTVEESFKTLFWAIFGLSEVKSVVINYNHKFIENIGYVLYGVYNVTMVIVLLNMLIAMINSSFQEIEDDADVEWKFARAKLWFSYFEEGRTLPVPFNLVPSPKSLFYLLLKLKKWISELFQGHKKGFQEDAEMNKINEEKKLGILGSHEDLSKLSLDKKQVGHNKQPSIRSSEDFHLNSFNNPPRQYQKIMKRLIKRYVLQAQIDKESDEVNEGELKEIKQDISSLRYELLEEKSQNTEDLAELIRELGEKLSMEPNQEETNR
The assay can be described thus: Evaluation of TRPC6 channel inhibitory activity (1), FLIPR Calcium 5 Assay Kit, OAG stimulation (Compound Nos. 1-1293). Format: cell-based. Conditions: Human TRPC6 stably-expressing cells, OAG 30 μM, FLIPR Calcium 5 Assay Kit; read-out: Inhibitory activity (pIC50 class) (converted). An outline of the steps: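 Calcium influx read by FLIPR fluorescence in cells stably expressing human TRPC6, dye-loaded 30 min. Compounds preincubated 20 min, then OAG stimulation at 30 μM final. Inhibition fitted by four-parameter logistic regression to give pIC50, reported as +/++/+++ categories.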
`Cc1cc(-c2ccccc2)nn1Cc1cc(C#N)ccc1-c1ccc(CCN)cn1` [compound 1158, 4-[5-(2-aminoethyl)pyridin-2-yl]-3-[(5-methyl-3-phenylpyrazol-1-yl)methyl]benzonitrile]: the IC50 was above 1000 nM.

Turning to `Cc1nc(Oc2cc(C#N)ccc2-n2ncc3c2CNCC3)cc(N2CCCCC2)n1` [compound 747, 3-(2-methyl-6-piperidin-1-ylpyrimidin-4-yl)oxy-4-(4,5,6,7-tetrahydropyrazolo[3,4-c]pyridin-1-yl)benzonitrile], the IC50 is above 1000 nM.

As for `CC(C)c1cn(Cc2cc(C#N)ccc2-c2ncc(CN)cn2)nn1` [compound 1189, 4-[5-(aminomethyl)pyrimidin-2-yl]-3-[(4-propan-2-yltriazol-1-yl)methyl]benzonitrile], the IC50 was 10 to 1000 nM.

As to `Cn1nc(-c2ccccn2)cc1Oc1cc(C#N)ccc1-c1cc(CN)cn2ccnc12` [compound 737, 4-[6-(aminomethyl)imidazo[1,2-a]pyridin-8-yl]-3-(2-methyl-5-pyridin-2-ylpyrazol-3-yl)oxybenzonitrile], the IC50 is below 10 nM.

For `CC(C)CNc1cc(Oc2cc(C#N)ccc2-c2ncc(CN)cn2)cnn1` [compound 765, 4-[5-(aminomethyl)pyrimidin-2-yl]-3-[6-(2-methylpropylamino)pyridazin-4-yl]oxybenzonitrile], the IC50 was below 10 nM.

With `COCCOc1cc(Oc2cc(C#N)ccc2-c2ncc(CCN)cn2)nc(C)n1` [compound 890, 4-[5-(2-aminoethyl)pyrimidin-2-yl]-3-[6-(2-methoxyethoxy)-2-methylpyrimidin-4-yl]oxybenzonitrile], the IC50 is 10 to 1000 nM.

With `Cc1nc(Oc2cc(C#N)ccc2-c2ncc(CN)cn2)cc(N2CCC(F)CC2)n1` [compound 669, 4-[5-(aminomethyl)pyrimidin-2-yl]-3-[6-(4-fluoropiperidin-1-yl)-2-methylpyrimidin-4-yl]oxybenzonitrile], the IC50 is 10 to 1000 nM.

For the compound `CC(C)CNC(=O)c1cn(Cc2cc(C#N)ccc2-c2ccc(CCN)cc2)cn1` [compound 1114, 1-[[2-[4-(2-aminoethyl)phenyl]-5-cyanophenyl]methyl]-N-(2-methylpropyl)imidazole-4-carboxamide], the IC50 was above 1000 nM.

For `Cn1nc(-c2cccnc2)cc1Oc1cc(C#N)ccc1-c1ccc(CCN)cn1` [Compound 179, 4-[5-(2-aminoethyl)pyridin-2-yl]-3-(2-methyl-5-pyridin-3-ylpyrazol-3-yl)oxybenzonitrile], the IC50 is below 10 nM.

`CN(C)c1cc(Oc2cc(C#N)ccc2-c2ncc(CN)cn2)n(C)n1` [compound 626, 4-[5-(aminomethyl)pyrimidin-2-yl]-3-[5-(dimethylamino)-2-methylpyrazol-3-yl]oxybenzonitrile]: the IC50 was below 10 nM.

With `Cc1ccc(-c2cc(Oc3cc(C#N)ccc3-c3ccc(CCN)cn3)n(C)n2)nc1` [Compound 182, 4-[5-(2-aminoethyl)pyridin-2-yl]-3-[2-methyl-5-(5-methylpyridin-2-yl)pyrazol-3-yl]oxybenzonitrile], the IC50 is below 10 nM.

As to `CC(C)Nc1cc(Oc2cc(C#N)ccc2-c2ccc(CCN)cn2)n(C)n1` [compound 575, 4-[5-(2-aminoethyl)pyridin-2-yl]-3-[2-methyl-5-(propan-2-ylamino)pyrazol-3-yl]oxybenzonitrile], the IC50 was below 10 nM.

As to `Cc1cc(Oc2cc(C#N)ccc2-c2ccc([C@H](O)CN)cn2)cc(N2CCOC[C@H]2C)n1` [compound 550, 4-[5-[(1S)-2-amino-1-hydroxyethyl]pyridin-2-yl]-3-[2-methyl-6-[(3R)-3-methylmorpholin-4-yl]pyridin-4-yl]oxybenzonitrile], the IC50 was below 10 nM.

Turning to `Cn1nc(-c2cccnc2)cc1Oc1cc(C#N)ccc1-c1ccc(CCN)nc1` [Compound 178, 4-[6-(2-aminoethyl)pyridin-3-yl]-3-(2-methyl-5-pyridin-3-ylpyrazol-3-yl)oxybenzonitrile], the IC50 is 10 to 1000 nM.

For the compound `Cc1cc(Oc2cc(C#N)ccc2-c2ncc(CCN)cn2)cc(-c2ncccn2)n1` [compound 686, 4-[5-(2-aminoethyl)pyrimidin-2-yl]-3-(2-methyl-6-pyrimidin-2-ylpyridin-4-yl)oxybenzonitrile], the IC50 is above 1000 nM.

As to `Cn1nc(C2CCC2)cc1Oc1cc(C#N)ccc1-c1ncc(C(O)CN)s1` (stereo not drawn) [Compound 238, 4-[5-(2-amino-1-hydroxyethyl)-1,3-thiazol-2-yl]-3-(5-cyclobutyl-2-methylpyrazol-3-yl)oxybenzonitrile], the IC50 is below 10 nM.

Consider `N#Cc1ccc(-c2ccc(CCN)cc2)c(Oc2cc(N3CCOCC3)nc(C(F)(F)F)n2)c1` [Compound 113, 4-[4-(2-aminoethyl)phenyl]-3-[6-morpholin-4-yl-2-(trifluoromethyl)pyrimidin-4-yl]oxybenzonitrile], for which the IC50 was below 10 nM.

For `Cn1nc(-c2ccccc2)cc1Oc1cc(C#N)ccc1-c1cnc(C(O)CN)cn1` (stereo not drawn) [compound 314, 4-[5-(2-amino-1-hydroxyethyl)pyrazin-2-yl]-3-(2-methyl-5-phenylpyrazol-3-yl)oxybenzonitrile], the IC50 is below 10 nM.

Consider `Cc1nc(Oc2cc(C#N)ccc2-c2ccc3c(c2)CCC3N)cc(N2CCOCC2)n1` (stereo not drawn) [Compound 132, 4-(1-amino-2,3-dihydro-1H-inden-5-yl)-3-(2-methyl-6-morpholin-4-ylpyrimidin-4-yl)oxybenzonitrile], for which the IC50 is 10 to 1000 nM.

With `N#Cc1ccc(-c2ccc(CN)cn2)c(C(=O)c2cnc(N3CCOCC3)o2)c1` [compound 1085, 4-[5-(aminomethyl)pyridin-2-yl]-3-(2-morpholin-4-yl-1,3-oxazole-5-carbonyl)benzonitrile], the IC50 is 10 to 1000 nM.

In the case of `Cn1nc(C2CCC2)cc1Oc1cc(C#N)ccc1-c1ncc(C(O)CN)cn1` (stereo not drawn) [Compound 278, 4-[5-(2-amino-1-hydroxyethyl)pyrimidin-2-yl]-3-(5-cyclobutyl-2-methylpyrazol-3-yl)oxybenzonitrile], the IC50 is below 10 nM.

`COC(c1cnc(-c2ccccc2)s1)c1cc(C#N)ccc1-c1ccc(CCN)cc1` (stereo not drawn) [compound 1230, 4-[4-(2-aminoethyl)phenyl]-3-[methoxy-(2-phenyl-1,3-thiazol-5-yl)methyl]benzonitrile]: the IC50 is above 1000 nM.

For `N#Cc1ccc(-n2cc(C(O)CN)cn2)c(Oc2cnnc(-c3ccccc3)c2)c1` (stereo not drawn) [Compound 154, 4-[4-(2-amino-1-hydroxyethyl)pyrazol-1-yl]-3-(6-phenylpyridazin-4-yl)oxybenzonitrile], the IC50 is 10 to 1000 nM.

As to `Cn1nc(-c2cccnn2)cc1Oc1cc(C#N)ccc1-c1ncc(CN)cn1` [compound 934, 4-[5-(aminomethyl)pyrimidin-2-yl]-3-(2-methyl-5-pyridazin-3-ylpyrazol-3-yl)oxybenzonitrile], the IC50 was 10 to 1000 nM.

Turning to `Cn1nc(N2CCCC2)cc1Oc1cc(C#N)ccc1-c1ncc(CCN)cn1` [compound 628, 4-[5-(2-aminoethyl)pyrimidin-2-yl]-3-(2-methyl-5-pyrrolidin-1-ylpyrazol-3-yl)oxybenzonitrile], the IC50 was below 10 nM.

In the case of `Cn1nc(C2CC2)cc1Oc1cc(C#N)ccc1-c1ccc(NC(=O)C2CCNCC2)cn1` [compound 781, N-[6-[4-cyano-2-(5-cyclopropyl-2-methylpyrazol-3-yl)oxyphenyl]pyridin-3-yl]piperidine-4-carboxamide], the IC50 is above 1000 nM.

Regarding `Cc1nc(Oc2cc(C#N)ccc2-n2cc([C@@H](O)CN)cn2)cc(-c2ccccc2C#N)n1` [compound 341, 4-[4-[(1R)-2-amino-1-hydroxyethyl]pyrazol-1-yl]-3-[6-(2-cyanophenyl)-2-methylpyrimidin-4-yl]oxybenzonitrile], the IC50 is below 10 nM.

Consider `Cn1nc(C2CC2)cc1Oc1cc(C#N)ccc1-c1ncc(CN)cn1` [compound 325, 4-[5-(aminomethyl)pyrimidin-2-yl]-3-(5-cyclopropyl-2-methylpyrazol-3-yl)oxybenzonitrile], for which the IC50 is below 10 nM.

Take `N#Cc1ccc(-c2ncc(CCN)cn2)c(C(=O)c2nnc(N3CCOCC3)s2)c1` [compound 1096, 4-[5-(2-aminoethyl)pyrimidin-2-yl]-3-(5-morpholin-4-yl-1,3,4-thiadiazole-2-carbonyl)benzonitrile]: the IC50 is 10 to 1000 nM.

As for `CC(C)Cc1nn(C)c(Oc2cc(C#N)ccc2-c2ccc(CCN)cc2)c1C(C)C` [Compound 243, 4-[4-(2-aminoethyl)phenyl]-3-[2-methyl-5-(2-methylpropyl)-4-propan-2-ylpyrazol-3-yl]oxybenzonitrile], the IC50 is above 1000 nM.
